{"source": "patent US20250346550A1", "about": "“METHODS OF MODULATING ENDONUCLEASE G USING RESVERATROL AND ITS DERIVATIVES” (THE REGENTS OF THE UNIVERSITY OF COLORADO A BODY CORPORATE, priority 2022, published 2025)", "key": {"[1]": {"test_system": "paternal mitochondrial elimination (PME) in C. elegans wild-type (N2) cross-fertilized embryos", "test": "PME fluorescent microscopy assay (MTR-stained paternal mitochondrial clusters), N2 males x N2 hermaphrodites", "assay_type": "in vivo", "conditions": "for effect on PME when males were treated: 50 μM pretreatment of males before mating (FIG. 3a, b); for dynamics of PME at different embryonic stages: 50 μM vs 0.25% ethanol mock (FIG. 1g, FIG. 12); for effect on PME: 64-cell embryos (FIG. 1b, d); for effect on PME of the UV-irradiated solution: compound irradiated with UV for 4 hours, 64-cell embryos (FIG. 1e, f); for concentration sufficient to significantly affect PME / concentration showing maximal PME activity: dose series (FIG. 7a, b); for concentration sufficient to significantly affect PME: cis: inhibition, 64-cell, trans: enhancement, 16-cell; for concentration showing maximal PME activity: cis: inhibitory, trans: enhancing", "protocol": "FIG. 1. […] The numbers of MTR-stained paternal mitochondrial clusters in 64-cell cross-fertilized embryos from mating of MTR-stained N2 males with N2 hermaphrodites in the presence of the indicated compounds (100 μM) were scored. n≥15 embryos for each compound. b, d-g, Quantification of MTR-stained paternal mitochondrial clusters in 64-cell stage embryos (b, d-f) or in embryos at the indicated stage (g) from the cross between MTR-stained N2 males and N2 hermaphrodites, in the presence of 0.25% ethanol (Mock) or 50 μM of the indicated compound. In each experiment, n>40 embryos (b,d,e), n=20 embryos (f), and n≥10 embryos (g) were scored, respectively. […] Data are mean±s.e.m. **P<0.01, ***P<0.001; n.s., not significant, two-sided, unpaired t-test.\nFIG. 7. Effects of different dosages of resveratrol isomers on PME. a, b, The effects of different dosages of cis-resveratrol (a) and trans-resveratrol (b) on PME. The numbers of MTR-stained paternal mitochondrial clusters in 64-cell embryos (a) or 16-cell embryos (b) from mating of MTR-stained N2 males with N2 hermaphrodites in the presence of the indicated concentrations of resveratrol isomers were scored. […] N2 hermaphrodites and MTR-stained uaDf5/+ males were mated as indicated in the presence of 0.25% ethanol (Mock, d), 50 μM trans-resveratrol (e), or 50 μM cis-resveratrol (f). Males also carried smIs42, an integrated Psur-5sur-5::gfp transgene, which directs GFP expression in all somatic cells in most developmental stages, and was used to track cross progeny. A single cross-fertilized embryo or larva (MTR- or GFP-positive) at the indicated stage was analyzed by PCR. uaDf5/+ and N2 hermaphrodites were controls.\nFIG. 12. […] Quantification of MTR-stained paternal mitochondrial clusters at the indicated embryonic stages from the cross between MTR-stained N2 males and N2 hermaphrodites, in the presence of 0.25% ethanol (Mock) or 50 μM of the indicated compound. In each experiment, n≥10 embryos embryos. Data are mean±s.e.m. **P<0.01, ***P<0.001; n.s., not significant, two-sided, unpaired t-test.\nFollowing fertilization, paternal mitochondria are rapidly depolarized and damaged in fertilized eggs, which could generate and release reactive oxygen species (ROS) that affect PME and embryo development. We thus screened twelve small molecules derived from natural products that have been used as antioxidants for the potential activity in modulating PME (FIG. 6a), using a fluorescent microscopy assay. In this assay, C. elegans wild-type (N2) males prestained with Mitotracker Red (MTR), a mitochondrion-specific fluorescent dye, were mated with unstained N2 hermaphrodites in the presence of the compound of interest ([…]) and the cross-fertilized embryos were examined for the presence of MTR-stained paternal mitochondria or mitochondrial clusters."}, "[2]": {"test_system": "PME defect of rad-23 deficient animals (proteasome pathway)", "test": "PME microscopy assay in rad-23(tm2595) crosses", "assay_type": "in vivo, C. elegans", "conditions": "50 μM, 64-cell embryos (FIG. 3d)", "protocol": "FIG. 3. Resveratrol isomers target CPS-6 to affect PME. a, b, Both cis-resveratrol and trans-resveratrol act paternally to affect PME. The numbers of MTR-stained paternal mitochondrial clusters in embryos at 64-cell (a) or 16-cell (b) stage from the indicated crosses were scored. N2 males or hermaphrodites were pretreated with 0.25% ethanol (Mock), 50 μM cis-resveratrol (a), or 50 μM trans-resveratrol (b) as indicated before mating. c-g, Quantification of MTR-stained paternal mitochondrial clusters in 64-cell embryos from the indicated crosses treated with 0.25% ethanol (Mock), 50 μM cis-resveratrol, and 50 μM trans-resveratrol, respectively. Alleles used are lgg-1(bp523), cps-6(tm3222) and rad-23(tm2595). Data are mean s.e.m; n≥15 embryos (a) and n≥20 embryos (b, c-g) were scored in each experiment. ***P<0.001; n.s., not significant, two-sided, unpaired t-test. h, Resveratrol isomers enhance or inhibit the nuclease activity of CPS-6 in a plasmid DNA cleavage assay. 10 ng of CPS-6 were incubated with 0.25% ethanol (Mock), 20 μM cis-resveratrol, or 20 μM trans-resveratrol in dark at 4° C. for 1.5 hours, before 1 μg of the pPD49.78 plasmid DNA were added to the reactions. After further incubation at 30° C. for 1 hour, the reactions were resolved on a 1% agarose gel. Three different forms of plasmid DNA are indicated. […]"}, "[3]": {"test_system": "LGG-1 autophagosome enclosure of MTR-stained paternal mitochondria in zygotes", "test": "autophagosome formation on paternal mitochondria (SIM, anti-LGG-1)", "assay_type": "in vivo, C. elegans", "conditions": "males pretreated with 50 μM; for isolated paternal mitochondria: mock 16%; for paternal mitochondria fully enclosed by autophagosomes: mock 49%", "protocol": "FIG. 4. Resveratrol isomers affect autophagosome formation on paternal mitochondria. a-f, Analysis of enclosure of MTR-stained paternal mitochondria by LGG-1 autophagosomes. Zygotes from the indicated crosses with MTR-stained N2 males pretreated with 0.25% ethanol (Mock)(a,b), 50 μM trans-resveratrol (c,d), or 50 μM cis-resveratrol (e,f) were labeled with an antibody to LGG-1. Images were acquired with a Nikon SIM microscope. Dashed rectangles highlight the areas enlarged and shown below ([…]). Scale bars, 2 μm (a,c,e), 0.5 μm (b,d,f). g, Quantification of four types of paternal mitochondria in zygotes that were fully enclosed, partially enclosed, and not enclosed (isolated) by the LGG-1 autophagosomes and that had initiating phagophore, respectively. The number of MTR-stained paternal mitochondria scored in each experiment was shown below the pie chart.\nCPS-6 plays a key role in promoting internal breakdown of paternal mitochondria and rapid autophagosome formation on damaged paternal mitochondria following fertilization, which leads to their subsequent degradation by autophagy. We tested if resveratrol isomers affect autophagosome formation on paternal mitochondria using superresolution structured illumination microscopy (SIM). In zygotes from mating of MTR-stained and mock-treated N2 males with unstained N2 hermaphrodites, close to one half (49%) of MTR-stained paternal mitochondria were fully enclosed by autophagosomes labeled by anti-LGG-1 monoclonal antibody (FIG. 4a, b and g). The remaining paternal mitochondria either were partially enclosed by autophagosomes (23%), or had adjacent autophagosome membrane that could initiate the elongation process along the paternal mitochondrion (12%; initiating phagophore), or were isolated (16%) with no nearby autophagosome or phagophore (FIG. 4a, b and g). In zygotes from mating of MTR-stained and trans-resveratrol-treated N2 males with N2 hermaphrodites, autophagosome formation on paternal mitochondria increased dramatically, with 75% of paternal mitochondria fully enclosed and 12% of paternal mitochondria partially enclosed by autophagosomes (FIG. 4c, d and g). […] On the other hand, in zygotes from mating between unstained N2 hermaphrodites and MTR-stained and cis-resveratrol-treated N2 males, autophagosome formation on paternal mitochondria decreased substantially."}}, "note": "“Also recorded” adds a separate entry of the source.", "data": [{"smiles": "Oc1ccc(/C=C\\c2cc(O)cc(O)c2)cc1", "note": "[cis-resveratrol]", "values": [{"measurement": "effect on PME when males were treated", "setting": "[1]", "value": "PME was suppressed"}, {"measurement": "dynamics of PME at different embryonic stages", "setting": "[1]", "value": "blocked rapid elimination of paternal mitochondria"}, {"measurement": "effect on PME", "setting": "[1]; 50 μM", "value": "inhibited PME better than the aged trans-resveratrol"}, {"measurement": "effect on PME when only hermaphrodites were treated", "setting": "[1]; 50 μM, males mock treated (FIG. 3a)", "value": "PME proceeded normally"}, {"measurement": "effect on PME of the UV-irradiated solution", "setting": "[1]; 50 μM", "value": "reduced PME inhibitory activity"}, {"measurement": "concentration sufficient to significantly affect PME", "setting": "[1]", "value": 1, "unit": "µM"}, {"measurement": "concentration showing maximal PME activity", "setting": "[1]", "value": 50, "unit": "µM"}, {"measurement": "average paternal mitochondrial clusters in 64-cell embryos", "setting": "[1]; freshly prepared, 50 μM (FIG. 1d)", "value": 16, "unit": "clusters"}, {"measurement": "effect on PME defects in rad-23 deficient animals", "setting": "[2]", "value": "enhanced"}, {"measurement": "isolated paternal mitochondria", "setting": "[3]", "value": 31, "unit": "%"}, {"measurement": "paternal mitochondria fully enclosed by autophagosomes", "setting": "[3]", "value": 35, "unit": "%"}]}, {"smiles": "Oc1ccc(/C=C/c2cc(O)cc(O)c2)cc1", "note": "[trans-resveratrol, 3,5,4′-trihydroxy-trans-stilbene]", "values": [{"measurement": "effect on PME when males were treated", "setting": "[1]", "value": "only acted through males to enhance PME"}, {"measurement": "dynamics of PME at different embryonic stages", "setting": "[1]", "value": "accelerated elimination of paternal mitochondria; also recorded: identical activity in promoting PME"}, {"measurement": "effect on PME", "setting": "[1]; 50 μM", "value": "did not inhibit PME"}, {"measurement": "effect on PME of the UV-irradiated solution", "setting": "[1]; 50 μM", "value": "acquired the activity to inhibit PME"}, {"measurement": "concentration sufficient to significantly affect PME", "setting": "[1]", "value": 25, "unit": "µM"}, {"measurement": "concentration showing maximal PME activity", "setting": "[1]", "value": 50, "unit": "µM"}, {"measurement": "effect on PME defects in rad-23 deficient animals", "setting": "[2]", "value": "inhibited"}, {"measurement": "isolated paternal mitochondria", "setting": "[3]", "value": 7, "unit": "%"}, {"measurement": "paternal mitochondria partially enclosed by autophagosomes", "setting": "[3]; mock 23%", "value": 12, "unit": "%"}, {"measurement": "paternal mitochondria fully enclosed by autophagosomes", "setting": "[3]", "value": 75, "unit": "%"}]}]}
